This is an account of results in patent US20230025807A1 (priority 2019, published 2023).

Usually IC50 stands for the concentration at which inhibition is half-maximal.

Structures are written as SMILES.

The target in this test is T1, Human CD38 (Homo sapiens, UniProt P28907).
T1 construct: purchased BPS Bioscience 79287
T1 sequence (P28907 1-300): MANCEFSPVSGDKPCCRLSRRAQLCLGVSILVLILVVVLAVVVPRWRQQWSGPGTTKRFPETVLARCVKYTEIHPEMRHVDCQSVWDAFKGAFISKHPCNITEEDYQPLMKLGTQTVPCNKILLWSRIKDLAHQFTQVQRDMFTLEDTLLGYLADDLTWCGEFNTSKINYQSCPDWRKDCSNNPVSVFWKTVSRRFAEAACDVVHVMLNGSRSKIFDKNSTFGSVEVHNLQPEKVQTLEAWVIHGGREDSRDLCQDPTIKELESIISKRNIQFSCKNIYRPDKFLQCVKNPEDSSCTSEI
In words: biochemical. As to the method:
CD38 hydrolase buffer (4×) was thawed on ice and 1×CD38 hydrolase buffer was prepared by diluting 4×CD38 hydrolase buffer with water. CD38 hydrolase enzyme was diluted to […] with 1×CD38 hydrolase buffer (10 ng/well). Master mix was prepared by mixing equal volumes of water and CD38 hydrolase buffer (4×) and 10 μl of the mix was added to all the wells. Following master mix addition, 10 μl of the inhibitors and 20 μl of CD38 hydrolase enzyme were added to the wells. For wells designated blank, 10 μl and 20 μl of 1×CD38 hydrolase buffer was added respectively in place of CD38 enzyme and inhibitors. The plate was covered and incubated 30 min at room temperature with slow shaking at 400 rpm. After 30 min incubation, the plate was removed and 10 μl of diluted ε-NAD substrate was added to all the wells. The plate is incubated for 10 min, spun at 1200 rpm for 30 secs to remove bubbles and read in Tecan Spark using a fluorometer setting of excitation 300 nm and emission 410 nm. The reading for the blank was subtracted from all the values. IC50 for the test compounds were determined by using Graphpad prism software v7.0.
With `COCCO[C@H]1CC[C@H](NC(=O)c2cc(-n3ccnc3)cc3ccn(C)c23)CC1` [Example 54, 5-(1H-imidazol-1-yl)-N-((1r,4r)-4-(2-methoxyethoxy)cyclohexyl)-1-methyl-1H-indole-7-carboxamide], the IC50 turned out to be 375 nM.

For `COCCO[C@H]1CC[C@H](NC(=O)c2cc(-n3ccnc3)cc3[nH]cc(C#N)c23)CC1` [Example 56, 3-cyano-6-(1H-imidazol-1-yl)-N-((1r,4r)-4-(2-methoxyethoxy)cyclohexyl)-1H-indole-4-carboxamide], 9.8 nM corresponded to half-maximal inhibition (IC50).

Regarding `COCCO[C@H]1CC[C@H](NC(=O)c2nc(-n3ccnc3)cc3cc[nH]c23)CC1` [Example 59, 5-(1H-imidazol-1-yl)-N-((1r,4r)-4-(2-methoxyethoxy)cyclohexyl)-1H-pyrrolo[2,3-c]pyridine-7-carboxamide], the IC50 was 6 nM.
